Laboratory results published in the METLIN SMRT retention time set (Domingo-Almenara et al. 2019).

Assay: gradient 5% acetonitrile 3 min, to 50% in 2 min, to 85% in 15 min, held 3 min, 100 µL/min
Settings: column: Zorbax Extend-C18 2.1 x 50 mm; eluents: water / acetonitrile, 0.1% formic acid
Outline: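 Retention times of pure standards were taken from adduct peaks that were selected by computer and manually inspected. Over 3 months, mixtures of ~100 molecules were run by HPLC–quadrupole time-of-flight mass spectrometry in positive and negative ionization mode. The Zorbax Extend-C18 column (2.1 × 50 mm, 1.8 μm) ran at 100 μL/min in water and acetonitrile, each containing 0.1% formic acid, with 40 μL dead volume and 900 μL dwell volume.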

Row | Compound | RP-LC retention time [s]
1 | CCc1onc(C)c1C1CCCN1C(=O)c1c(F)cccc1F (centres undefined) | 788
2 | CS(=O)(=O)c1ccc(CC(=O)N2CCN(c3ccc(=O)n(-c4ccc(Cl)cc4)n3)CC2)cc1 | 739
3 | COCC1CN(S(=O)(=O)Cc2ccccc2F)CC12CCNCC2 (centres undefined) | 575
4 | O=C(NCc1ccc2c(c1)OCO2)C1CCCN(c2nnc3c(Cl)cccn23)C1 (centres undefined) | 701
5 | COc1ccccc1-c1ccc(N2CCC(C(=O)NN3CCOCC3)CC2)nn1 | 530
6 | CCOc1ccccc1NC(=O)Nc1ccc2c(c1)CC(=O)N2 | 675
7 | COc1ccc(NC(=O)N2[C@H]3CC[C@@H]2c2cnc(C)nc2C3)cc1F | 671
8 | CC(C)C(=O)Nc1ccc(-n2cnc(C(=O)N3CCCCCC3)c2)nc1 | 710
9 | COc1ccc(NC(=O)C2CCc3nc(N4CCCC4)ncc3C2)cc1OC (centres undefined) | 719
10 | CCCN(CC1CCOC1)C(=O)Nc1ccccc1OCC (centres undefined) | 903
11 | CCCCN1C(=O)C(CC(=O)N2CCCC2)Sc2ncccc21 (centres undefined) | 755
12 | CC(C)n1c(N2CCCN(C(=O)c3ccncc3)CC2)cc(=O)n(C(C)C)c1=O | 621
13 | CCC(=O)N1CCc2c(C(=O)N3CCN(c4ccc(OC)cc4)CC3)cccc21 | 778
14 | Cc1ccccc1N1CCN(S(=O)(=O)c2cc3n(c2)CCCN(C)C3=O)CC1 | 813
15 | CC(NC(=O)C1CCN(C(=O)c2ncn3c2COC(c2ccccc2)C3)CC1)c1ccc(F)cc1 (centres undefined) | 848
16 | O=C(NCc1cccnc1)C1CCc2sc(C(=O)N3CCOCC3)cc2C1 (centres undefined) | 526
17 | O=C(Cn1cnc2nc3c(cc2c1=O)CCCC3)NCCCN1CCc2ccccc2C1 | 864
18 | COc1ccc(N2CCN(C(=O)[C@@H]3[C@H](c4cc(OC)c(OC)c(OC)c4)c4cc5c(cc4[C@H](O)[C@H]3CO)OCO5)CC2)cc1 | 698
19 | O=S(=O)(Nc1cccn2c(C3CCC3)nnc12)c1ccc2c(c1)CCCC2 | 933
20 | O=C(c1cccs1)N1CCCC1c1nc(-c2ccc(F)cc2F)no1 (centres undefined) | 926
21 | COC(=O)C(N)Cc1ccc(Cl)cc1 (centres undefined) | 653
22 | CC(CCc1ccccc1)NC(=O)CCC(=O)N1CCc2c(c(C(=O)N3CCOCC3)nn2C)C1 (centres undefined) | 679

Row | Compound | RP-LC retention time [s]
23 | CCS(=O)(=O)N1CC(=O)N(c2cccc(F)c2)C(C)(C(=O)NCc2ccccc2)C1 (centres undefined) | 779
24 | CC(C)NC(=O)C1CCCN(c2nc3ncn(CC(=O)Nc4ccccc4Cl)c(=O)c3s2)C1 (centres undefined) | 741
25 | Cc1nc(NCCC2=CCCCC2)nc(N2CCOCC2)c1[N+](=O)[O-] | 965
26 | O=C(NC1CCCCCC1)C1CCN(c2cncnc2N2CCOCC2)CC1 | 635
27 | CC(C)CC(=O)Nc1ccc(-n2cnc(C(=O)N3CCC(C)CC3)c2)nc1 | 774
28 | Brc1ccc(CN2CCc3nc(N4CCN(c5ccccn5)CC4)ncc3C2)cc1 | 574
29 | CCN1CCCn2nc(C3CCN(C(=O)C4CCCC4)CC3)cc2C1=O | 686
30 | CCn1nnc2cc(-c3noc(CN4C(=O)COc5ccccc54)n3)ccc21 | 845
31 | O=C(Nc1cccnc1)C1CCc2nc(N3CCCCC3)ncc2C1 (centres undefined) | 583
32 | CN(C)S(=O)(=O)c1ccc(COc2ccc(F)cc2)o1 | 875
33 | Brc1cccc(-c2nc3ccccn3c2Nc2ccc3c(c2)OCCO3)c1 | 714
34 | O=C(C1CCCO1)N1CCN(c2ccc(-n3cccn3)nn2)CC1 (centres undefined) | 586
35 | COc1ccc(N2CC(c3nc(-c4ccccc4F)no3)CC2=O)c(OC)c1 (centres undefined) | 863
36 | COc1ccc(S(=O)(=O)N2CCC(CN3CCC(C)CC3)CC2)cc1Cl | 692
37 | NC(=O)c1cc(N2CCOCC2)nc2c(Cl)cccc12 | 720
38 | CC(=O)N1CCC(C(=O)Nc2ncc(C)s2)CC1 | 617
39 | O=C(CCc1nnc2c3cc(-c4ccc(F)cc4)nn3ccn12)N1CCN(c2ccccn2)CC1 | 611
40 | CC(C)CN1Cc2ccccc2-n2ccnc2C12CCN(C(=O)c1ccccn1)CC2 | 631
41 | CC(=O)N1CCc2cc(CNS(=O)(=O)c3ccccc3Cl)ccc21 | 763
42 | COc1ccc(N2C(=O)CSC2c2ccc(Cl)cc2)cc1 (centres undefined) | 877
43 | O=c1[nH]cc(Cl)cc1Cl | 662
44 | CCOC(=O)c1[nH]c(C)c(CCC(=O)N2CCC(C(=O)N3CCCC3)CC2)c1C | 687

Now from value to compound:

Row | RP-LC retention time [s] | Compound
45 | 833 | CN(C)c1cnc(-n2cc(NC(=O)c3ccc(C(F)(F)F)cc3)cn2)nc1
46 | 861 | COc1ccc(-c2csc(NC(=O)NC3CCCC3)n2)cc1
47 | 1030 | CCOC(=O)c1noc2ncnc(Nc3ccc(C)cc3C)c12
48 | 622 | CCn1c(CCNC(=O)c2ccc(OC)c(F)c2)nc2cccnc21
49 | 597 | Cc1ccc(CN2CCC(CNC(=O)c3c(C)oc4c3C3=NCCN3C=N4)C2)cc1 (centres undefined)
50 | 819 | COc1ccc(C)cc1NC(=O)N1C[C@@H]2C[C@H]1C[C@@H]2NC(=O)c1cccs1
51 | 738 | CC(C)NC(=O)C1CCCN(c2nc3ncn(CC(=O)Nc4cccc(Cl)c4)c(=O)c3s2)C1 (centres undefined)
52 | 926 | CCn1ccc2sc(C)c(C(=O)NCc3cccc(Cl)c3)c2c1=O
53 | 693 | COc1cccc(NC(=O)C2CC(=O)N(c3ccc4c(c3)CCN4C(C)=O)C2)c1 (centres undefined)
54 | 795 | Cc1cc(NC(=O)c2csc(-c3ccc(N4CCCC4)nc3)n2)ccc1F
55 | 819 | Cc1ccc(-n2c(=O)c3c(cc(C)n3C)n(CC(=O)Nc3ccc4c(c3)OCO4)c2=O)cc1
56 | 1100 | Cc1ccc(CNC(=O)Nc2ccc(-c3nc(-c4ccccc4)co3)cc2)cc1
57 | 623 | CCN1C(=O)c2cccnc2Sc2cc(CNC(=O)c3ccncc3)ccc21
58 | 698 | COCCNc1c(-c2ccc(C)cc2)nc2sc(C(=O)N(C)C)c(C)n12
59 | 1250 | CCOc1ccc(C2Cn3nnc(-c4nc(-c5ccc(C)cc5)no4)c3CO2)cc1 (centres undefined)
60 | 1090 | CSc1ccc(CCNC(=O)c2nnc(-c3ccc(S(=O)(=O)N4CCCCC4)cc3)o2)cc1
61 | 625 | Cc1ccc(C(=O)N2CCc3sc(C(=O)N4CCN(C(C)C)CC4)cc3C2)cc1
62 | 984 | Cc1ccc(-c2nnc(-c3cccc(S(=O)(=O)NC(C)C)c3)o2)cc1
63 | 858 | Cc1ccc(C(=O)N2CCC3(CC2)N=C(c2ccc(C)cc2)NO3)cc1
64 | 1130 | Cc1ccc(-n2cc(C(=O)OCC(=O)OC(C)C)c3ccccc3c2=O)cc1
65 | 757 | Cc1ccccc1NC(=O)C1CCN(c2nc(C3CCC3)nc3csc(C)c23)CC1
66 | 741 | COc1ccc(C(=O)N2C[C@@H]3C[C@H]2C[C@@H]3NC(=O)c2cccs2)c(C)c1
67 | 989 | CCOc1cc(C2c3c(oc4ccccc4c3=O)C(=O)N2CCCN(C)C)ccc1O (centres undefined)

Row | RP-LC retention time [s] | Compound
68 | 750 | COc1ccc(-c2nc3ccc(Cl)cn3c2Nc2ccc3c(c2)OCCO3)cc1
69 | 958 | CCn1cc(-c2nc(C(=O)NCc3ccc(OC)cc3)cs2)c2cccnc21
70 | 1170 | Cc1ccc(NS(=O)(=O)c2cc(-c3cc(C(F)(F)F)on3)sc2C)cc1
71 | 853 | COc1ccc(-c2noc(-c3cccn(CC(=O)Nc4cccc(SC)c4)c3=O)n2)cc1OC
72 | 1000 | CCCn1ccc2sc(C)c(C(=O)NCCC3=CCCCC3)c2c1=O
73 | 648 | CSc1ccc(CNC(=O)COc2cc(C)nc(N3CCCC3)n2)cc1
74 | 634 | CCOC(=O)N1CCN(c2cc(C(=O)O)c3cc(NC(=O)Cc4ccc(OC)cc4)ccc3n2)CC1
75 | 975 | COCCn1cc2c3c(cccc31)CN(C(=O)Cc1ccccc1Cl)CC2
76 | 845 | CCc1ccccc1NC(=O)Cc1csc2nc(-c3ccccc3)cn12
77 | 908 | Cn1cc(-c2nc(C(=O)NCc3ccccc3F)cs2)c2cccnc21
78 | 647 | CC12CC(NC(=O)N1c1cccc(C(=O)NCc3ccccn3)c1)c1cc(Cl)ccc1O2 (centres undefined)
79 | 793 | COc1ccc(S(=O)(=O)CCC(=O)Nc2sc3c(c2C(N)=O)CCC(C)C3)cc1 (centres undefined)
80 | 625 | COCc1ncc(C)n1CC1CN(C(=O)C2(c3ccc(OC)cc3)CC2)C1
81 | 868 | CCn1ccc(C(=O)Nc2ccc(OCc3nnc(-c4ccccc4)o3)cc2)n1
82 | 893 | O=C(NCCc1csc(-c2ccccc2)n1)C1CCN(S(=O)(=O)c2ccccc2F)CC1
83 | 555 | O=C(NCCOc1ccc(-c2ccccn2)nn1)c1ccco1
84 | 1020 | COc1ccc(Cc2c(C)nn(-c3nc(C)c(C(=O)N4CCOCC4)s3)c2C)cc1
85 | 1120 | Cc1cccc(-c2nc(-c3ccc4c(c3)nc(C)c(=O)n4C)no2)c1
86 | 1050 | CC(C)C(=O)n1nc(-c2ccc(Cl)cc2)nc1N
87 | 938 | Cc1cccc(OCc2nc(CCN(C)C(=O)NC3CCCCC3)no2)c1
88 | 720 | CCCCOC(=O)c1ccc(Nc2c(C(=O)N(CC)CC)cnc3nc(C)ccc23)cc1
89 | 863 | O=C(Nc1cccc(Cl)c1)c1cn(CC(O)c2ccc3c(c2)OCO3)nn1 (centres undefined)
